Literature values as cited in US12485093B2, “Composition for use as an antiviral in the form of nasal drops and in nebulisers” (DERMOPARTNERS, S.L., priority 2021, dated 2025).

Tested on: SARS-CoV-2
Details: concentration of 5% m/v

For OC[C@@H](O)[C@H](O)[C@@H](O)CO [xylitol], the “viricidal and antiviral activity on SARS-CoV-2” value is listed as “viricidal and exhibit antiviral activity”.
